Broadly, the Ki is a measure of affinity in units of concentration, obtained from inhibition or displacement.

Where only a bound is given, the exact number is not on record here.

The assay concerns the target T1, HIV-1 protease (Human immunodeficiency virus type 1 group M subtype B, UniProt P04585).
T1 construct: The protease (or proteinase), consisting of only 99 amino acids, is among the smallest enzymes known
Briefly: In vitro HIV protease inhibitory assay (HIV Protease FITC Assay). The class given is biochemical. The following applies: for inhibition at 0.123 µM: HIV-1 Dose 0.123 uM; for inhibition at 0.123 µM / inhibition at 0.37 µM / inhibition at 1.1 µM / inhibition at 3.3 µM / inhibition at 10 µM / inhibition at 30 µM / inhibition at 100 µM: read-out: HIV-1 Protease % Inhib; for inhibition at 0.37 µM: HIV-1 Dose 0.370 uM; for inhibition at 1.1 µM: HIV-1 Dose 1.100 uM; for inhibition at 3.3 µM: HIV-1 Dose 3.300 uM; for inhibition at 10 µM: HIV-1 Dose 10.000 uM; for inhibition at 30 µM: HIV-1 Dose 30.000 uM; for inhibition at 100 µM: HIV-1 Dose 100.000 uM; for Ki: read-out: HIV-1 FITC Ki. In outline:
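Biotin/FITC-labelled peptide substrate cleaved by HIV-1 protease for 1 h at room temperature in the dark, in 0.1 M sodium acetate pH 5.5, 1.0 M NaCl, 0.05% NP-40. Uncleaved substrate captured on avidin beads and separated by filtration; fluorescence gave % inhibition.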

Turning to `CCC(CC1CCCCN1S(=O)(=O)c1ccc(C)cc1)c1cc(O)c(C(c2ccccc2)C2CC2)c(=O)o1` (stereo not shown) [Example 140, 2-[2-(3-(Cyclopropylphenylmethyl)-4-hydroxy-2-oxo-2H-pyran-6-yl]butyl]-1-[(4-methylphenyl)sulfonyl]-piperidine], the inhibition at 0.123 µM is < 10%, the inhibition at 0.37 µM was determined as 10.5%, the inhibition at 1.1 µM was 38.6% and the inhibition at 3.3 µM was 70.2%. The inhibition at 10 µM came to 81.6% and the inhibition at 30 µM is 77.1%.
With `CCC(CC1CCN(S(=O)(=O)c2ccc(C)cc2)CC1)c1cc(O)c(C(c2ccccc2)C2CC2)c(=O)o1` (stereo not shown) [Example 141, 4-[2-[3-(Cyclopropylphenylmethyl)-4-hydroxy-2-oxo-2H-pyran-6-yl]butyl]-1-[(4-methylphenyl)sulfonyl]-piperidine], the inhibition at 0.123 µM is < 10%, the inhibition at 0.37 µM is < 10%, the inhibition at 1.1 µM is < 10% and the inhibition at 3.3 µM is < 10%. Moreover, the inhibition at 10 µM worked out at 11.2% and the inhibition at 30 µM came to 17%.
Regarding `CCC(CC1CC(=O)N(Cc2ccccc2)C1)c1cc(O)c(C(c2ccccc2)C2CC2)c(=O)o1` (stereo not shown) [Example 142, 4-[2-[3-(Cyclopropylphenylmethyl)-4-hydroxy-2-oxo-2H-pyran-6-yl]butyl]-1-(phenylmethyl)-2-pyrrolidinone], the inhibition at 0.123 µM was < 10%, the inhibition at 0.37 µM was < 10%, the inhibition at 1.1 µM worked out at 26.9% and the inhibition at 3.3 µM was 64.3%. Besides, the inhibition at 10 µM was 88.7% and the inhibition at 30 µM is 104%.
Regarding `O=c1oc(CC2CCCC2)cc(O)c1C(c1ccccc1)C1CC1` (stereo not shown) [Example 143, 6-(Cyclopentylmethyl)-3-(cyclopropylphenylmethyl)-4-hydroxy-2H-pyran-2-one], the inhibition at 0.123 µM was < 10%, the inhibition at 0.37 µM was < 10%, the inhibition at 1.1 µM worked out at 25.1% and the inhibition at 3.3 µM amounted to 57.9%. The inhibition at 10 µM is 83.1% and the inhibition at 30 µM came to 93.8%.
As for `O=c1oc(CC2CCOCC2)cc(O)c1C(c1ccccc1)C1CC1` (stereo not shown) [Example 144, 3-(Cyclopropylphenylmethyl)-4-hydroxy-6-[(tetrahydro-2H-pyran-4-yl)methyl]-2H-pyran-2-one], the inhibition at 0.123 µM was < 10%, the inhibition at 0.37 µM was < 10%, the inhibition at 1.1 µM was < 10% and the inhibition at 3.3 µM was < 10%. For the same compound, the inhibition at 10 µM was < 10% and the inhibition at 30 µM worked out at 22.7%.
Take `O=c1oc(CCCF)cc(O)c1C(c1ccccc1)C1CC1` (stereo not shown) [Example 145, 3-(Cyclopropylphenylmethyl)-6-(3-fluoropropyl)-4-hydroxy-2H-pyran-2-one]: the inhibition at 0.123 µM is < 10%, the inhibition at 0.37 µM is < 10%, the inhibition at 1.1 µM was < 10% and the inhibition at 3.3 µM was 26.6%. In addition, the inhibition at 10 µM amounted to 59.7% and the inhibition at 30 µM amounted to 84.4%.
`CCC(c1cc(O)c(C(c2ccccc2)C2CC2)c(=O)o1)C(O)c1ccccc1` (stereo not drawn) [Example 146, 3-(α-cyclopropylbenzyl)-4-hydroxy-6-(α-ethyl-β-hydroxyphenethyl)-2H-pyran-2-one]: the inhibition at 0.123 µM stood at 36.4%, the inhibition at 0.37 µM worked out at 73.6%, the inhibition at 1.1 µM amounted to 82.7% and the inhibition at 3.3 µM was determined as 87.7%. For the same compound, the inhibition at 10 µM came to 91.2% and the inhibition at 30 µM came out at 95.2%.
`Cc1ccc(C(O)Cc2cc(O)c(C(c3ccccc3)C3CC3)c(=O)o2)cc1` (stereo not drawn) [Example 147, 3-(α-cyclopropylbenzyl)-4-hydroxy-6-(β-hydroxy-p-methylphenethyl)-2H-pyran-2-one]: the inhibition at 0.123 µM was < 10%, the inhibition at 0.37 µM is < 10%, the inhibition at 1.1 µM is 28.9% and the inhibition at 3.3 µM worked out at 52.6%. Moreover, the inhibition at 10 µM is 78.1%, the inhibition at 30 µM was 89.2% and the inhibition at 100 µM was determined as 114%.
Regarding `O=c1oc(CC(O)c2ccc(F)cc2)cc(O)c1C(c1ccccc1)C1CC1` (stereo not drawn) [Example 148, 3-(α-cyclopropylbenzyl)-4-hydroxy-6-(β-hydroxy-p-fluorophenethyl)-2H-pyran-2-one], the inhibition at 0.123 µM is < 10%, the inhibition at 0.37 µM was determined as 22.4%, the inhibition at 1.1 µM amounted to 52% and the inhibition at 3.3 µM turned out to be 80.3%. Besides, the inhibition at 10 µM was 91.9%, the inhibition at 30 µM was found to be 89.7%, the inhibition at 100 µM was 130% and the Ki was 161 nM.
As to `O=c1oc(CC(O)c2ccc(Cl)cc2)cc(O)c1C(c1ccccc1)C1CC1` (stereo not drawn) [Example 149, 3-(α-cyclopropylbenzyl)-4-hydroxy-6-(β-hydroxy-p-chlorophenethyl)-2H-pyran-2-one], the inhibition at 0.123 µM is < 10%, the inhibition at 0.37 µM amounted to 19.7%, the inhibition at 1.1 µM is 46.9% and the inhibition at 3.3 µM turned out to be 73.5%. For the same compound, the inhibition at 10 µM was 98.5%, the inhibition at 30 µM was 103%, the inhibition at 100 µM is 117% and the inhibition constant Ki was 267 nM.
In the case of `O=c1oc(CC(O)c2cccc(Cl)c2)cc(O)c1C(c1ccccc1)C1CC1` (stereo not drawn) [Example 150, 3-(α-cyclopropylbenzyl)-4-hydroxy-6-(β-hydroxy-m-chlorophenethyl)-2H-pyran-2-one], the inhibition at 0.123 µM is < 10%, the inhibition at 0.37 µM was 13.3%, the inhibition at 1.1 µM amounted to 25.4% and the inhibition at 3.3 µM came out at 54.1%. The inhibition at 10 µM was found to be 75.2%, the inhibition at 30 µM was found to be 91% and the inhibition at 100 µM turned out to be 113%.
In the case of `O=c1oc(CC(O)c2ccccc2Cl)cc(O)c1C(c1ccccc1)C1CC1` (stereo not drawn) [Example 151, 3-(α-cyclopropylbenzyl)-4-hydroxy-6-(β-hydroxy-o-chlorophenethyl)-2H-pyran-2-one], the inhibition at 0.123 µM is < 10%, the inhibition at 0.37 µM was < 10%, the inhibition at 1.1 µM is 19.1% and the inhibition at 3.3 µM was determined as 39.8%. Also, the inhibition at 10 µM came out at 70.1%, the inhibition at 30 µM worked out at 88.4% and the inhibition at 100 µM stood at 113%.
`O=c1oc(CC(O)c2ccoc2)cc(O)c1C(c1ccccc1)C1CC1` (stereo not drawn) [Example 152, 3-(α-cyclopropylbenzyl)-4-hydroxy-6-(2-(furan-3-yl)-2-hydroxyethyl)-2H-pyran-2-one]: the inhibition at 0.123 µM was < 10%, the inhibition at 0.37 µM is < 10%, the inhibition at 1.1 µM came to 26.4% and the inhibition at 3.3 µM is 48.8%. The inhibition at 10 µM was found to be 77.6%, the inhibition at 30 µM came out at 90.5% and the inhibition at 100 µM is 110%.
With `O=c1oc(CC(O)c2ccsc2)cc(O)c1C(c1ccccc1)C1CC1` (stereo not drawn) [Example 153, 3-(α-cyclopropylbenzyl)-4-hydroxy-6-(2-(thiophen-3-yl)-2-hydroxyethyl)-2H-pyran-2-one], the inhibition at 0.123 µM was < 10%, the inhibition at 0.37 µM was determined as 17.7%, the inhibition at 1.1 µM was found to be 40.3% and the inhibition at 3.3 µM was 69%. Also, the inhibition at 10 µM turned out to be 88.6%, the inhibition at 30 µM turned out to be 99.7% and the inhibition at 100 µM came to 120%.
`CCC(Cc1ccc(F)cc1)c1cc(O)c(C(c2ccccc2)C2CC2)c(=O)o1` (stereo not drawn) [Example 154, 3-(α-cyclopropylbenzyl)-4-hydroxy-6-(α-ethyl-p-flurorphenethyl)-2H-pyran-2-one]: the inhibition at 0.123 µM stood at 21.9%, the inhibition at 0.37 µM stood at 57.3%, the inhibition at 1.1 µM came to 84.1% and the inhibition at 3.3 µM worked out at 86.7%. In addition, the inhibition at 10 µM amounted to 98.1%, the inhibition at 30 µM was found to be 92.9% and the Ki came out at 39 nM.
On to `CCC(Cc1ccc(Cl)cc1)c1cc(O)c(C(c2ccccc2)C2CC2)c(=O)o1` (stereo not drawn) [Example 155, 3-(α-cyclopropylbenzyl)-4-hydroxy-6-(α-ethyl-p-chlorophenethyl)-2H-pyran-2-one], for which the inhibition at 0.123 µM amounted to 27.6%, the inhibition at 0.37 µM worked out at 46%, the inhibition at 1.1 µM came out at 79.9% and the inhibition at 3.3 µM is 92.8%. Moreover, the inhibition at 10 µM is 97.2%, the inhibition at 30 µM came to 93.5%, the inhibition at 100 µM was 111% and the Ki came out at 66 nM.
Turning to `CCC(Cc1cccc(Cl)c1)c1cc(O)c(C(c2ccccc2)C2CC2)c(=O)o1` (stereo not drawn) [Example 156, 3-(α-cyclopropylbenzyl)-4-hydroxy-6-(α-ethyl-m-chlorophenethyl)-2H-pyran-2-one], the inhibition at 0.123 µM was < 10%, the inhibition at 0.37 µM was 24.2%, the inhibition at 1.1 µM was determined as 64.4% and the inhibition at 3.3 µM worked out at 82.6%. The inhibition at 10 µM worked out at 87.3%, the inhibition at 30 µM is 92.3% and the Ki turned out to be 65 nM.
Turning to `CCC(Cc1ccccc1Cl)c1cc(O)c(C(c2ccccc2)C2CC2)c(=O)o1` (stereo not drawn) [Example 157, 3-(α-cyclopropylbenzyl)-4-hydroxy-6-(α-ethyl-o-chlorophenethyl)-2H-pyran-2-one], the inhibition at 0.123 µM is < 10%, the inhibition at 0.37 µM worked out at 17.6%, the inhibition at 1.1 µM worked out at 42.2% and the inhibition at 3.3 µM was found to be 69%. In addition, the inhibition at 10 µM was 83.5% and the inhibition at 30 µM amounted to 84.9%.
